# Source: patent publication US20210009542A1 (Calico Life Sciences LLC, priority 2018, published 2021)
# Read-outs that look alike come from different tables or passages of the source.
# What was measured:
# [1] = test system: Pan T cells isolated from C57BL6 splenocytes; experiment: T cell activation assay (flow cytometry, CD25/CD69 on CD8 T cells); assay type: cell-based, mouse; conditions: for % CD25 within CD8+ / % CD69 within CD8+ / CD25 MFI / CD69 MFI: 30 μM compound, 2 days; for T cell activation and T cell function: with TCR stimulation
# Description: (§1) Pan T cells were isolated from C57BL6 splenocytes using a MACS Pan T cell isolation kit II (Miltenyi Biotec, Auburn, Calif.) according to the manufacturer's instructions. Isolated T cells (200,000 cells/well in a 96 well flat-bottom plate) were cultured in RPMI 1640 supplemented with 10% FBS, […] 2-mercatoethanol, 100 U/mL penicillin, and 100 μg/mL streptomycin, and incubated with the indicated concentration of compound or DMSO in duplicates. After 1 hour, mouse T cell activator CD3/CD28 Dynabeads (ThermoFisher Scientific, Waltham, Mass.) were added at a 1:5 beads to cells ratio to stimulate the T cells for 2 or 3 days as outlined below. T cells with or without compound were incubated in the absence of T cell activator beads (media only) as control.
# After 2 days of stimulation, activation status of T cells was assessed by flow cytometry. T cells were first subjected to Zombie Violet™ Fixable Viability dye (BioLegend, San Diego, Calif.) for dead cell exclusion, washed and then stained with BUV805 labeled anti-CD8, APC-R700 labeled anti-CD25 (both from BD Biosciences, San Jose, Calif.) and PE labeled anti-CD69 (BioLegend, San Diego, Calif.) antibodies. After staining, cells were fixed with 2% paraformaldehyde and acquired on a BD LSRFortessa™ X-20 flow cytometer (BD Biosciences, San Jose, Calif.) using BD FACSDiva™ software. Data was analyzed using FlowJo V10 (Flow Jo LLC, Ashland, Oreg.). Dead cells were excluded and frequencies of activated CD8 T cells was reported as the frequency of CD25+ or CD69+ cells within the CD8+ population. The expression level of CD25 and CD69 indicates the activation status of cells on a per cell basis and was evaluated by the mean fluorescence intensities (MFI) of CD25 and CD69.
# [2] = test system: B16F10 mouse melanoma cells; experiment: B16F10 IFNγ-induced cellular growth inhibition assay; assay type: cell-based; conditions: for inhibition at 33 µM: Mus musculus, B16-F10
# In short: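 B16F10 cells (500/well, DMEM + 10% FBS) dosed in triplicate at 100 μM to 0.001 μM (0.1% DMSO) with or without 0.5 ng/mL final mouse IFNγ. Confluence imaged every 6 h for 5 days; % growth inhibition calculated versus DMSO/with-IFNγ control once DMSO/no-IFNγ wells exceeded 95% confluence.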
# [3] = test system: Pan T cells isolated from C57BL6 splenocytes; experiment: T cell function assay (IFNγ and TNFα in supernatants, MSD V-plex); assay type: cell-based, mouse; conditions: 30 μM compound, 3 days, supernatant
# Description: as §1
# After 3 days of stimulation, supernatants were collected and IFNγ and TNFα in supernatants were assessed using an MSD V-plex assay (Meso Scale Discovery, Rockville, Md.).
# [4] = anti-CD3/anti-CD28 Dynabeads (1:5 beads:cells)
# [5] = +0.5 ng/mL IFNγ, 33 μM compound, relative to DMSO control, read-out: % B16F10 growth inhibition (+0.5 ng/mL IFNγ) @ 33 μM
# [6] = no IFNγ, 33 μM compound, read-out: % B16F10 growth inhibition (no IFNγ) @ 33 μM
smiles,measurement,setting,value
"CC(C)(O)CCOc1ccc2cc(O)c(N3CC(=O)NS3(=O)=O)c(F)c2c1 [Compound 182, 5-[1-fluoro-3-hydroxy-7-(3-hydroxy-3-methylbutoxy)naphthalen-2-yl]-1λ^6,2,5-thiadiazolidine-1,1,3-trione]",% CD25 within CD8+,[1]; [4],29.20%
same,% CD69 within CD8+,[1]; [4],61.90%
same,CD25 MFI,[1]; [4],741
same,CD69 MFI,[1]; [4],1601.5
same,% CD25 within CD8+,[1]; no TCR stimulation,1.17%
same,% CD69 within CD8+,[1]; no TCR stimulation,0.45%
same,CD25 MFI,[1]; no TCR stimulation,72.4
same,CD69 MFI,[1]; no TCR stimulation,18.3
same,T cell activation and T cell function,[1],increased both T cell activation and T cell function
same,inhibition at 33 µM,[2]; [5],60 to 90%
same,inhibition at 33 µM,[2]; [6],< 25%
same,IFNγ,[3]; [4],189 ng/mL
same,TNFα,[3]; [4],135 ng/mL
"COc1ccc2cc(O)c(N3CC(=O)NS3(=O)=O)c(F)c2c1 [Compound 124, 5-(1-fluoro-3-hydroxy-7-methoxynaphthalen-2-yl)-1λ^6,2,5-thiadiazolidine-1,1,3-trione]",% CD25 within CD8+,[1]; [4],32.55%
same,% CD69 within CD8+,[1]; [4],61.90%
same,CD25 MFI,[1]; [4],846.5
same,CD69 MFI,[1]; [4],1421.5
same,% CD25 within CD8+,[1]; no TCR stimulation,0.39%
same,% CD69 within CD8+,[1]; no TCR stimulation,0.23%
same,CD25 MFI,[1]; no TCR stimulation,57.05
same,CD69 MFI,[1]; no TCR stimulation,28.1
same,T cell activation and T cell function,[1],increased both T cell activation and T cell function
same,inhibition at 33 µM,"[2]; 33 μM, in the presence of IFNγ, read-out: growth inhibition in the presence of IFNγ compared to DMSO controls",60 to 90%
same,inhibition at 33 µM,[2]; [5],60 to 90%
same,inhibition at 33 µM,[2]; [6],< 25%
same,% B16F10 growth inhibition (+0.5 ng/mL IFNγ) @ 33 μM,"[2]; Table 4, +0.5 ng/mL IFNγ, 33 μM",B (a percent growth inhibition of 60-90%)
same,% B16F10 growth inhibition (no IFNγ) @ 33 μM,"[2]; Table 4, no IFNγ, 33 μM",D (a percent growth inhibition of <25%)
same,growth inhibition in the absence of IFNγ,[2]; absence of IFNγ,no observed growth inhibition
same,IFNγ,[3]; [4],435 ng/mL
same,TNFα,[3]; [4],195 ng/mL
same,IFNγ,[3]; no TCR stimulation,1.2 ng/mL
same,TNFα,[3]; no TCR stimulation,1.4 ng/mL
